Measurements reported in the NIST ThermoML archive (doi:10.1021/je060271a).

Conditions: 283.16 K, Liquid, Vibrating tube method

CCCC(=O)OCC(COC(=O)CCC)(COC(=O)CCC)COC(=O)CCC [pentaerythritol tetrabutyrate]
Conditions	mass density [kg/m3]
13019 kPa	1066.7
13044 kPa	1066.7
13070 kPa	1066.6
13101 kPa	1066.6
13127 kPa	1066.5
13208 kPa	1066.8
13264 kPa	1066.8
13291 kPa	1066.8
13317 kPa	1066.7
13343 kPa	1066.8
13374 kPa	1066.8
13401 kPa	1066.8
13427 kPa	1066.8
13460 kPa	1066.8
13487 kPa	1066.9
13514 kPa	1066.9
13541 kPa	1066.9
13574 kPa	1066.9
13601 kPa	1066.9
13628 kPa	1066.9
13661 kPa	1067
13689 kPa	1066.9
13722 kPa	1067.2
13750 kPa	1067
13778 kPa	1067
13807 kPa	1067.1
13841 kPa	1067
13870 kPa	1067.1
13927 kPa	1067.1
13962 kPa	1067
13990 kPa	1067.2
14025 kPa	1067.1
14054 kPa	1067.1
14084 kPa	1067.2
14113 kPa	1067.2
14149 kPa	1067.3
14178 kPa	1067.2
14208 kPa	1067.2
14245 kPa	1067.2
14275 kPa	1067.3
14306 kPa	1067.5
14343 kPa	1067.3
14374 kPa	1067.3
14405 kPa	1067.4
14436 kPa	1067.4
14474 kPa	1067.4
14504 kPa	1067.4
14536 kPa	1067.5
14574 kPa	1067.4
14605 kPa	1067.5
14638 kPa	1067.5
14677 kPa	1067.4
14709 kPa	1067.5
14741 kPa	1067.6
14774 kPa	1067.5
14814 kPa	1067.7
14846 kPa	1067.6
14886 kPa	1067.6
14919 kPa	1067.6
14952 kPa	1067.7
14985 kPa	1067.6
15026 kPa	1067.6
15059 kPa	1067.8
15094 kPa	1067.7
15136 kPa	1067.7
15170 kPa	1067.7
15205 kPa	1067.7
15246 kPa	1067.9
15282 kPa	1067.9
15317 kPa	1067.9
15359 kPa	1067.8
15394 kPa	1067.9
15430 kPa	1068
15473 kPa	1067.9
15545 kPa	1067.9
15944 kPa	1068.3
15983 kPa	1068.2
16022 kPa	1068.3
16069 kPa	1068.4
16110 kPa	1068.4
16153 kPa	1068.4
16192 kPa	1068.3
16240 kPa	1068.4
16281 kPa	1068.3
16322 kPa	1068.3
16363 kPa	1068.4
16414 kPa	1068.4
16456 kPa	1068.5
16498 kPa	1068.5
16547 kPa	1068.6
16580 kPa	1068.5
16614 kPa	1068.6
16656 kPa	1068.6
16691 kPa	1068.8
16726 kPa	1068.6
16769 kPa	1068.7
16805 kPa	1068.8
16839 kPa	1068.7
16871 kPa	1068.8
16898 kPa	1068.8
16924 kPa	1068.6
16956 kPa	1068.8
16983 kPa	1068.7
17011 kPa	1068.9
17044 kPa	1068.9
17074 kPa	1068.9
17104 kPa	1068.8
17139 kPa	1069
17162 kPa	1068.9
17182 kPa	1068.8
17202 kPa	1069
17225 kPa	1068.9
17237 kPa	1069
17246 kPa	1069
17257 kPa	1069
17266 kPa	1069
17275 kPa	1068.9
17284 kPa	1068.8
17295 kPa	1069
17304 kPa	1068.9
17313 kPa	1069.1
17322 kPa	1069.1
17333 kPa	1069.1
17342 kPa	1069
17352 kPa	1069
17362 kPa	1069.1
17371 kPa	1069
17380 kPa	1069.1
17391 kPa	1069.1
17400 kPa	1069
17411 kPa	1069
17420 kPa	1069
17429 kPa	1069.2
17440 kPa	1069.1
17449 kPa	1069.1
17458 kPa	1069
17469 kPa	1069.1
17478 kPa	1069.1
17487 kPa	1069
17498 kPa	1069.2
17508 kPa	1069.1
17517 kPa	1069.1
17528 kPa	1069.1
17538 kPa	1069.1
17547 kPa	1069.1
17556 kPa	1069.2
17568 kPa	1069.2
17577 kPa	1069.2
17586 kPa	1069.2
17598 kPa	1069.1
17607 kPa	1069.2
17618 kPa	1069.1
17628 kPa	1069.2
17637 kPa	1069.2
17646 kPa	1069.1
17658 kPa	1069.1
17668 kPa	1069.2
17678 kPa	1069.3
17687 kPa	1069.2
17698 kPa	1069.3
17708 kPa	1069.2
17717 kPa	1069.2
17790 kPa	1069.3
17800 kPa	1069.4
17810 kPa	1069.3
17820 kPa	1069.2
17831 kPa	1069.3
17841 kPa	1069.3
17850 kPa	1069.3
17862 kPa	1069.3
17872 kPa	1069.3
17882 kPa	1069.3
17892 kPa	1069.3
17903 kPa	1069.4
17913 kPa	1069.3
17922 kPa	1069.4
17935 kPa	1069.4
17944 kPa	1069.4
17954 kPa	1069.3
17966 kPa	1069.4
17976 kPa	1069.5
17986 kPa	1069.4
17997 kPa	1069.4
18007 kPa	1069.4
18017 kPa	1069.5
18029 kPa	1069.4
18039 kPa	1069.5
18049 kPa	1069.3
18061 kPa	1069.4
18071 kPa	1069.4
18081 kPa	1069.5
18157 kPa	1069.4
18188 kPa	1069.4
18199 kPa	1069.5
18209 kPa	1069.5
18219 kPa	1069.6
18231 kPa	1069.6
18241 kPa	1069.4
18254 kPa	1069.5
18286 kPa	1069.5
18361 kPa	1069.6
18371 kPa	1069.7
18381 kPa	1069.5
18394 kPa	1069.7
18404 kPa	1069.6
18414 kPa	1069.7
18426 kPa	1069.5
18436 kPa	1069.6
18449 kPa	1069.6
18459 kPa	1069.6
18469 kPa	1069.7
18480 kPa	1069.6
18492 kPa	1069.7
18502 kPa	1069.7
18513 kPa	1069.7
18525 kPa	1069.7
18536 kPa	1069.7
18548 kPa	1069.7
18559 kPa	1069.6
18569 kPa	1069.6
18579 kPa	1069.8
18592 kPa	1069.7
18603 kPa	1069.8
18614 kPa	1069.7
18627 kPa	1069.6
18637 kPa	1069.7
18648 kPa	1069.8
18658 kPa	1069.7
18669 kPa	1069.7
18682 kPa	1069.8
18692 kPa	1069.7
18703 kPa	1069.8
18716 kPa	1069.7
18726 kPa	1069.8
18737 kPa	1069.8
18750 kPa	1069.8
18761 kPa	1069.7
18772 kPa	1069.7
18783 kPa	1069.8
18794 kPa	1069.8
18806 kPa	1069.8
18817 kPa	1069.9
18830 kPa	1069.9
18841 kPa	1069.9
18851 kPa	1069.8
18875 kPa	1069.9
18886 kPa	1069.9
18910 kPa	1069.9
18921 kPa	1069.9
18934 kPa	1069.9
18945 kPa	1069.9
19002 kPa	1069.9
19015 kPa	1069.9
19026 kPa	1070
19039 kPa	1070
19050 kPa	1070
19062 kPa	1070
19073 kPa	1070
19084 kPa	1069.9
19097 kPa	1070
19108 kPa	1070.1
19119 kPa	1070.1
19132 kPa	1070.1
19154 kPa	1069.9
19168 kPa	1070
19179 kPa	1070.1
19190 kPa	1070
19204 kPa	1070
19215 kPa	1070.1
19226 kPa	1070.1
19240 kPa	1070.1
19251 kPa	1070.1
19262 kPa	1070.1
19274 kPa	1070.1
19287 kPa	1070.1
19299 kPa	1070
19310 kPa	1070.2
19323 kPa	1070.1
19335 kPa	1070.2
19408 kPa	1070.2
19444 kPa	1070.2
19482 kPa	1070.2
19493 kPa	1070.2
19507 kPa	1070.1
19518 kPa	1070.1
19530 kPa	1070.2
19544 kPa	1070.2
19556 kPa	1070.1
19568 kPa	1070.3
19579 kPa	1070.3
19593 kPa	1070.2
19605 kPa	1070.3
